What was measured:
[1] = tested on: Primary adult human keratinocytes (HEKa); assay: 2-D Dandruff Model: triple cytokine mix (IL-17, IL-22, TNFα) induced IL-8 by ELISA, normalised to protein; format: cell-based; details: with triple cytokine mix, mix alone 744.83
Description: Primary adult human keratinocytes (HEKa) frozen at passage 1 were purchased from Invitrogen (Cat no […]). They were thawed into KGM Gold (Lonza cat no 00195769) made up with all components of the accompanying bullet kit plus 70μM calcium (from a stock solution of 200mM calcium chloride), placed in a T75 tissue culture flask and grown to 70-80% confluence. The cells were passaged and again grown to 70-80% confluence. At passage 3 the cells were washed with calcium and magnesium free PBS (Life Technologies cat no 14190-094) and removed from the flask using trypsin-EDTA (Life Technologies cat no 25300-054) and washed by centrifugation with trypsin neutralising solution (Life Technologies cat no R-002-100). The cell pellet was re-suspended in KGM Gold plus 70μM calcium and containing the bullet kit components but omitting the gentamycin and hydrocortisone (referred to as plating medium). The cells were plated into 24-well plates at a density of 2x10^4 cells/well and allowed to settle for 24 hours prior to treatment. The medium is removed from the cells and replace by 0.5ml plating medium containing […], […] and […] TNFα together with the active at the required concentration. A concentration range can be done. Also included are an untreated control, a vehicle control and a triple cytokine mix without active all in triplicate. The plates are incubated for a further 16 to 24 hours. In this case the actives were 6-gingerdiol and a selection of curcuminoids. The medium is harvested for IL-8 ELISA (R &D Systems Duoset kit cat no DY208) and the cells lysed for protein assay (Pierce BCA Protein Assay Kit Life Technologies cat no 23225) in order to normalise IL-8 to protein.

THP1-XBlue™ cells = assay: Anti-inflammation THP-1 in vitro assay: LPS-induced IL-6 by ELISA; format: cell-based
Description: The following procedure was used to test the anti-inflammation efficacy of the various actives alone or in combination. THP1-XBlue™ (Cat No: thpx-sp, InvivoGen) cells were cultured as suspense in RPMI 1640 medium supplemented with 10% FBS, penicillin (10 U/mL) - streptomycin (10 µg/ML). Cells were differentiated in 24-well plates at the density of 5 x 10^5 cells / well with 100 nM PMA for 72 h. Cells were then co-treated with pure E. coli lipopolysaccharides (LPS) and single concentration or a combination of 6-gingerdiol and niacinamide at different doses. After 24 h, the supernatants were collected measured for interleukin (IL)-6 as pro-inflammatory bio-marker using enzyme-linked immunosorbent assay (ELISA).

[2] = Solubility in organic solvents; format: physicochemical; details: commonly used organic solvents such as alcohols, ethers, esters, acetonitrile, chloroform, dichloromethane, dimethylformamide, dimethylsulfoxide

SMILES	Concentration of IL-8 ([1]; 10 mM of niacinamide)	Concentration of IL-6 (THP1-XBlue™ cells; 0.5 mM niacinamide, with LPS, LPS alone 46137)	Concentration of IL-6 (THP1-XBlue™ cells; 1 mM of niacinamide, with LPS, LPS alone 46137)	Concentration of IL-6 (THP1-XBlue™ cells; 16 mM of niacinamide, co-treated with LPS, 24 h, LPS alone 10547)	Concentration of IL-8 ([1]; 5 µM of 6-gingerdiol)	Concentration of IL-8 ([1]; 10 µM of 6-gingerdiol)	Concentration of IL-8 ([1]; 20 µM of 6-gingerdiol)	solubility [2]	Concentration of IL-6 (THP1-XBlue™ cells; 1.25 µM of 6-gingerdiol, with LPS, LPS alone 46137)	Concentration of IL-6 (THP1-XBlue™ cells; 10 µM of 6-gingerdiol, co-treated with LPS, 24 h, LPS alone 10547)
NC(=O)c1cccnc1 [niacinamide]	408.30 pg/100µgprotein	41688 pg/mL	39894 pg/mL	6031 pg/mL						
CCCCCC(O)CC(O)CCc1ccc(O)c(OC)c1 (stereo not shown) [6-gingerdiol, 1-(4-hydroxy-3-methoxyphenyl)decane-3,5-diol]					347.99 pg/100µgprotein	446.85 pg/100µgprotein	390.31 pg/100µgprotein	soluble	37212 pg/mL	8781 pg/mL
